Data: article PMC4076079, “Selective inhibitors of a PAF biosynthetic enzyme lysophosphatidylcholine acyltransferase 2” (Journal of Lipid Research, 2014)

Tests used:
Format in all cases: biochemical
mLPCAT1 = molecular target: T1, mLPCAT1 (Mus musculus, UniProt Q3TFD2); experiment: acyltransferase activity assay, DPPC product; details: 20 μM compound; microsomal fractions of nonstimulated CHO-S-PAFR cells; n = 3, mean ± SEM
T1 construct: expressed in transfected cells; host or cells: CHO-S-PAFR cells, microsomal fraction
T1 sequence (Q3TFD2 1-534): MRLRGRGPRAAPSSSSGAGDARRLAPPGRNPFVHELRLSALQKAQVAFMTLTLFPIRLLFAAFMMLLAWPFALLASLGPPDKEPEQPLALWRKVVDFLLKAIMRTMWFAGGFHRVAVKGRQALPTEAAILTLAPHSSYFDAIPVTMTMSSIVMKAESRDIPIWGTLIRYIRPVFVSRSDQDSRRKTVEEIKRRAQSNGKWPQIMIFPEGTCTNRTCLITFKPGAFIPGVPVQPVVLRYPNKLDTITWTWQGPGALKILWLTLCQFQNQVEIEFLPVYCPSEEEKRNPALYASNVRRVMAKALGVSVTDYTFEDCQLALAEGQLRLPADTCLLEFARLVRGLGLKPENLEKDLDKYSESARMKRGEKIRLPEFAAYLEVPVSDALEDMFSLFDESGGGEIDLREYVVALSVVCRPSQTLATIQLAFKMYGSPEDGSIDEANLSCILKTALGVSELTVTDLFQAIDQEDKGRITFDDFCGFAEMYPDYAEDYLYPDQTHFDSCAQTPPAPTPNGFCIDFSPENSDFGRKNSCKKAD
Procedure: (§1) Microsomal protein fractions (0.5 μg) supplemented with the indicated compound concentrations were added to the reaction mixture containing 100 mM Tris-HCl (pH 7.4), 1 μM CaCl2, 0.015% Tween-20, and two substrates. For acetyltransferase activity, the substrates were 1 mM acetyl-CoA and 5 μM d4-lyso-PAF; for the acyltransferase activity of LPCAT1 or LPCAT2, the substrates were, respectively, palmitoyl-CoA and d31-16:0 LPC or arachidonoyl-CoA and d4-lyso-PAF (all 5 μM). Each lysophospholipid contained fatty acid at the sn-1 position. After incubation at 37°C for 5 min, the reactions were stopped by adding 300 μl methanol containing 17:0 LPC or 14:0/14:0 PC as an internal standard. Deuterium-labeled products were analyzed by LC-MS/MS (Waters, Milford, MA and Thermo Scientific, Waltham, MA). […]
(§2) arachidonoyl-CoA, 5 µM; palmitoyl-CoA, 5 µM; d4-lyso-PAF, 5 µM; and d31-LPC, 5 µM. […]
(§3) deuterium-labeled products were measured by LC-MS/MS. […]
(§4) Step 7 screening: species-specific differences
(§5) To evaluate the effects on the activity of mouse or human LPCAT1 and LPCAT2, each microsomal fraction was obtained using CHO-S-PAFR cells with or without mcPAF (200 nM) stimulation for 5 min. Acetyltransferase and acyltransferase assays were performed with 20 µM of each compound. Percentage inhibition was calculated in each

mLPCAT2 = molecular target: T2, mLPCAT2 (Mus musculus, UniProt Q8BYI6); experiment: acyltransferase activity assay, 16:0/20:4 alkyl-PC product; details: 20 μM compound; microsomal fractions of nonstimulated CHO-S-PAFR cells; n = 3, mean ± SEM
T2 construct: expressed in transfected cells; host or cells: CHO-S-PAFR cells, microsomal fraction, with or without mcPAF stimulation
T2 sequence (Q8BYI6 1-544): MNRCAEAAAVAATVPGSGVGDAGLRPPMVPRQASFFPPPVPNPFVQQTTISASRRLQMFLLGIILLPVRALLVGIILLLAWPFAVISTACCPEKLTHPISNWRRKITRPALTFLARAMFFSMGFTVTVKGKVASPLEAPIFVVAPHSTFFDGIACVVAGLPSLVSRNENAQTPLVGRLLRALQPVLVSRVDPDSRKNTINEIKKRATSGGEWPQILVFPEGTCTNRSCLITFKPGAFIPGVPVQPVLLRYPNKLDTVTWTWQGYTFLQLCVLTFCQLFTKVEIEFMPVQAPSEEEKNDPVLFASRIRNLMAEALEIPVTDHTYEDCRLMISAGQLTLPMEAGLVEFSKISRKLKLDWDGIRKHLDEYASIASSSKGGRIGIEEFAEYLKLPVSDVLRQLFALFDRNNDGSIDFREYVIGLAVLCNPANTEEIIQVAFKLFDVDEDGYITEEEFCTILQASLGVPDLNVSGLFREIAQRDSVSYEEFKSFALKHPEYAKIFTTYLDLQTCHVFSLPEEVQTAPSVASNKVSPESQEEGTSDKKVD
Procedure: as §1, §2, §3, §4, §5

hLPCAT1 = molecular target: T3, hLPCAT1 (Homo sapiens, UniProt Q8NF37); experiment: acyltransferase activity assay, DPPC product by LC-MS/MS; details: for IC50: 0, 0.2, 0.6, 2, 6 and 20 μM of each compound in triplicate, LC-MS/MS, read-out: IC50, product DPPC, enzyme hLPCAT1; for percentage inhibition, product DPPC, hLPCAT1: 20 μM compound, microsomal fractions of nonstimulated CHO-S-PAFR cells, n = 3, mean ± SEM
T3 construct: expressed in transfected cells
T3 sequence (Q8NF37 1-534): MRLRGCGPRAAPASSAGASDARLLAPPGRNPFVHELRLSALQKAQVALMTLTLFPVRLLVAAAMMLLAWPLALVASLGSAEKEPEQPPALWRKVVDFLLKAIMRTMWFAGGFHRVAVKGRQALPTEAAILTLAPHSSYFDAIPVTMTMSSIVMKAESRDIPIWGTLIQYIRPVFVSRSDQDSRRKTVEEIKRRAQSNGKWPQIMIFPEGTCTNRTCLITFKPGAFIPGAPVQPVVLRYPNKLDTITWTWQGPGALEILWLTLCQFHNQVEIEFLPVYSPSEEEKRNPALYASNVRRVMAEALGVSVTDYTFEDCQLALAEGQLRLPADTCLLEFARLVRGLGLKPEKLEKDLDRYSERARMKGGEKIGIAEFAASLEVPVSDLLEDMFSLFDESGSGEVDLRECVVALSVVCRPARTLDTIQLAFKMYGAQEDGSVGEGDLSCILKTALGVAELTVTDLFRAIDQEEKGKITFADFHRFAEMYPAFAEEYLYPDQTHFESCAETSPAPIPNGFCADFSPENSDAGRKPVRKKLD
Procedure: as §1
Steps 2 to 5 screening: 96-well plate assay
Acetyltransferase and acyltransferase assays were developed in 96-well plates. The microsomal hLPCAT2, obtained from mcPAF-stimulated CHO-S-PAFR cells was used in steps 1, 2, and 5. The microsomal hLPCAT1 obtained from unstimulated CHO-S cells was used in steps 3 to 5. Each well of the 96-well plates contained 30 µl of 15 µg/ml protein, 600 nl of 2 mM compound, 30 µl buffer C, and two substrates (Fig. 1B and C).
Substrate concentrations were as follows: acetyl-CoA, 250 or 1000 µM acetyl-CoA; […]
arachidonoyl-CoA, 5 µM; palmitoyl-CoA, 5 µM; d4-lyso-PAF, 5 µM; and d31-LPC, 5 µM.
For step 5, compound concentrations were 0, 0.167, 0.67, 2, 6.7, and 20 µM. The deuterium-labeled products were measured by LC-MS/MS. Percentage inhibition (steps 2 to 4) or IC50 (step 5) was used as the hit criterion. […]
as §4, §5

Row | SMILES | percentage inhibition, product DPPC, mLPCAT1 (mLPCAT1) [percentage] | percentage inhibition, product 16:0/20:4 Alkyl-PC, mLPCAT2 (mLPCAT2) [percentage] | IC50 (hLPCAT1) [µM] | percentage inhibition, product DPPC, hLPCAT1 (hLPCAT1) [percentage]
1 | CCCOC(=O)c1ccc(N2C(=O)C(Cl)=C(Cl)C2=O)cc1 [TSI-10] | 14.8 ± 10.9 | 86.7 ± 5.2 | > 20 | 23.9 ± 3.4
2 | CC(C)OC(=O)c1ccc(N2C(=O)C(Cl)=C(Nc3ccccc3O)C2=O)cc1 [TSI-07] | 36.3 ± 5.7 | 82.4 ± 5.7 | > 20 | 19.5 ± 8.0
3 | CC(C)OC(=O)c1ccc(N2C(=O)C(Cl)=C(Cl)C2=O)cc1 [TSI-01, propan-2-yl 4-(3,4-dichloro-2,5-dioxopyrrol-1-yl)benzoate] | 28.2 ± 4.0 | 95.5 ± 1.8 | > 20 | 25.3 ± 8.7
4 | O=C1C(Cl)=C(N2CCOCC2)C(=O)N1c1ccc(Oc2ccccc2)cc1 [TSI-02, 3-chloro-4-morpholin-4-yl-1-(4-phenoxyphenyl)pyrrole-2,5-dione] |  |  | > 20 | 
5 | CCCCOC(=O)c1ccc(N2C(=O)C(Cl)=C(Cl)C2=O)cc1 [TSI-11, butyl 4-(3,4-dichloro-2,5-dioxopyrrol-1-yl)benzoate] | 12.2 ± 20.5 | 83.0 ± 3.5 | > 20 | 14.2 ± 4.8
